# Entries after “also recorded” stand apart in the source; their conditions may differ.
# How the values were obtained:
# [1] = tested on: E. coli; assay: mixed infection (polymicrobial) myositis model, PET/CT, E. coli-infected right triceps brachii; type: in vivo, mice; details: for postmortem gamma counting of tissues: E. coli-infected muscle; for E. coli SUV, [^18F]FMtl versus [^18F]FDS: P=0.11
# Text: (§1) Referring now to FIGS. 3A-3B, the sensitivity of [^18F]FMtl compared to [^18F]FDS was also investigated in a mixed infection (polymicrobial) model. [^18F]FDS has shown remarkable specificity for Enterobacteriaceae in vivo, but has limited to no sensitivity toward gram-positive and other gram-negative organisms. Mice were inoculated with live E. coli (8.4×10^6 CFU) and S. aureus (8.8×10^6 CFU) in the right and left triceps brachii, respectively.
# [2] = tested on: S. aureus; assay: in vitro accumulation of radiotracer in S. aureus cultures (gamma counts); type: cell-based; details: for accumulation in S. aureus cultures, tracer comparison: FIG. 1D, FMtl vs FDS P<0.001
# Experimental: (§2) Accumulation of [^18F]FMtl was also evaluated in a broad panel of bacterial strains.
# [3] = tested on: S. aureus; assay: mixed infection (polymicrobial) myositis model, PET/CT, S. aureus-infected left triceps brachii; type: in vivo, mice; details: for postmortem gamma counting of tissues: S. aureus-infected muscle
# Text: as §1
# [4] = tested on: S. aureus; assay: serial [^18F]FMtl PET during vancomycin treatment of S. aureus myositis; type: in vivo, mice; details: FIG. 7A
# Experimental: A growing incidence of antimicrobial resistance in many bacterial pathogens is a serious concern, as treatment failure is a major threat to global health. Inappropriate antibiotic use is also the primary driver of antibiotic resistance, which places undue risk onto patients for adverse events such as allergic reactions and C. difficile infection. […] Mice were inoculated with S. areus in the right triceps brachii and imaged 8 hours post-infection with [^18F]FMtl, prior to initiation of vancomycin treatment (100 mg/kg every 8 hours, IP) and subsequently imaged at 24 and 72 hours post-treatment. […] The accumulation of [^18F]FMtl was further investigated in a panel of bacterial isolates from infected combat wounds of military service members (see FIG. 7B).
# [5] = tested on: live strain of bacteria; assay: murine myositis model, infection vs sterile inflammation, PET SUV / Patlak / CFU correlation (strain not stated at the result); type: in vivo, mice
# Text: (§3) Referring now to FIGS. 2A-2D, a murine myositis model of musculoskeletal infection was used to determine whether [^18F]FMtl could differentiate sterile inflammation from infection in vivo by inoculating the right triceps brachii with a live strain of bacteria and the left triceps brachii with 10× heat-killed bacteria to generate an inflammatory response.
# To quantify PET signal, volumes of interest (VOIs) were generated in the upper limbs of mice using CT for anatomical localization. […] Biodistribution studies were performed in successive cohorts of mice over 3 hours to determine dosimetry of [^18F]FMtl. […] Static PET SUV were correlated with bacterial colony-forming units (CFU) from excised tissue to determine sensitivity of [^18F]FMtl (see FIG. 2C), indicating [^18F]FMtl can reliably detect as little as 5 log10 (CFU/mL) of bacteria in vivo by SUV. It was also investigated whether parametric mapping could increase bacterial sensitivity of [^18F]FMtl in vivo, as Patlak slope (K,) is a quantitative measure of rate of uptake in tissue, rather than SUV, which is semi-quantitative and cannot delineate signal from blood pool contamination and tissue. Parametric imaging improved the bacterial sensitivity of [^18F]FMtl by roughly 20-fold (log10 CFU=1.3; 1.7×10^6 improved to […]) (see FIG. 2D).
# [6] = tested on: E. coli; assay: murine myositis model, live vs 10× heat-killed bacteria, PET imaging (E. coli); type: in vivo, mice; details: gram-negative strain; infected vs inflamed triceps brachii, FIG. 2A
# Text: as §3
# [7] = tested on: broad panel of bacterial strains; assay: uptake in a broad panel of bacterial strains (pathogens of clinical interest); type: cell-based; details: 60 minutes of incubation, FIG. 1B
# Experimental: FIG. 1B is a graph showing uptake of [^18F]FMtl in pathogens of clinical interest, determined at 60 minutes of incubation;
# as §2
# [8] = tested on: A. baumannii; assay: laceration wound model infected with A. baumannii, [^18F]FMtl PET; type: in vivo; details: A. baumannii and several other ESKAPE pathogens
# Text: In an exemplary embodiment, [^18F]FMtl was able to differentiate sterile inflammation and bacterial infection resulting from S. aureus and E. coli in vivo in a murine myositis model using PET imaging. Exemplary embodiments of the present disclosure were extended to a laceration wound model infected with A. baumannii, an important pathogen in the nosocomial and battlefield setting. […] [^18F]FMtl PET was also able to monitor therapeutic efficacy of vancomycin against S. aureus in vivo. The ease of production of [^18F]FMtl facilitates wide dissemination from any radiopharmacy.
# [9] = tested on: E. coli; assay: in vitro accumulation of radiotracer in E. coli cultures (gamma counts); type: cell-based
# Experimental: as §2
# [10] = tested on: S. aureus; assay: murine myositis model, live vs 10× heat-killed bacteria, PET imaging (S. aureus); type: in vivo, mice; details: gram-positive strain; infected vs inflamed triceps brachii, FIG. 2A
# Text: as §3
# [11] = tested on: S. aureus; assay: competitive uptake assay of [^18F]FMtl in the presence of unlabeled D-mannitol; type: cell-based; details: co-incubation in S. aureus cultures, FIG. 1C
# Experimental: FIG. 1C is a graph showing a competitive uptake assay of [^18F]FMtl in the presence of unlabeled D-mannitol in S. aureus;
# as §2
compound,measurement,setting,value
"OC[C@@H](O)[C@@H](O)[C@H](O)[C@@H]([18F])CO [[^18F]FDS, 2-[^18F]fluoro-2-deoxy-sorbitol]",postmortem gamma counting of tissues,[1],only accumulated in E. coli-infected muscle
same,"specificity, E. coli compared to S. aureus infection",[1]; P=0.007,high specificity for E. coli compared to S. aureus
same,"E. coli SUV, [^18F]FMtl versus [^18F]FDS",[1],no significant differences
same,"accumulation in S. aureus cultures, tracer comparison",[2],not significantly different to negative control
same,postmortem gamma counting of tissues,[3],only accumulated in E. coli-infected muscle
"CN[C@H](CC(C)C)C(=O)N[C@H]1C(=O)N[C@@H](CC(N)=O)C(=O)N[C@H]2C(=O)N[C@H]3C(=O)N[C@H](C(=O)N[C@H](C(=O)O)c4cc(O)cc(O)c4-c4cc3ccc4O)[C@H](O)c3ccc(c(Cl)c3)Oc3cc2cc(c3O[C@@H]2O[C@H](CO)[C@@H](O)[C@H](O)[C@H]2O[C@H]2C[C@](C)(N)[C@H](O)[C@H](C)O2)Oc2ccc(cc2Cl)[C@H]1O [vancomycin, reference compound]",[^18F]FMtl PET signal during treatment,"[4]; vancomycin 100 mg/kg every 8 hours, IP, imaged 8 hours post-infection, 24 and 72 hours post-treatment",diminished over the course of treatment
"OC[C@@H](O)[C@@H](O)[C@H](O)[C@H]([18F])CO [[^18F]FMtl, [^18F]fluoromannitol]",postmortem gamma counting of tissues,[1],uptake in both S. aureus and E. coli
same,"E. coli SUV, [^18F]FMtl versus [^18F]FDS",[1],no significant differences
same,bacterial sensitivity with parametric imaging,[5]; Patlak parametric mapping,7.0×10^5 CFU
same,bacterial sensitivity before parametric imaging,[5]; SUV,1.7×10^6 CFU
same,time post-injection to significant differences in PET signal (infection detected and differentiated),"[5]; dynamic imaging, intravenous injection",5 min
same,gamma counting of excised triceps brachii after scans,"[5]; ex vivo, infected vs inflamed tissue",increased PET signal in the infected tissue compared to inflamed
same,bacteria reliably detected in vivo using the clinical standard SUV,"[5]; mouse, in vivo",10^5 CFU
same,sensitivity between E. coli and S. aureus,"[5]; mouse, in vivo",did not diminish
same,bacteria reliably detected in vivo by SUV (sensitivity),"[5]; static PET SUV correlated with CFU from excised tissue, FIG. 2C",5 log10 (CFU/mL)
same,increase of standardized uptake value (SUV) at infection compared to contralateral site of inflammation,"[5]; summed frames 45-60 minutes post-injection, FIG. 2B",3.5 fold
same,accumulation at site of infection (PET),[6],specifically accumulated in the site of infection
same,"accumulation in S. aureus cultures, tracer comparison",[2],significantly higher
same,accumulation in S. aureus versus E. coli cultures,[2]; P=0.64,not significantly different
same,incorporation of tracer over time,[2]; heat-killed bacteria,not heat-killed bacteria
same,incorporation of tracer over time,"[2]; live S. aureus cultures, FIG. 1A",readily incorporated
same,"SUV / accumulation, E. coli versus S. aureus infection in the same animal","[3]; E. coli 8.4×10^6 CFU right, S. aureus 8.8×10^6 CFU left, P=0.19",No significant differences in SUV; also recorded: indistinguishable accumulation
same,"accumulation in S. aureus infection, compared to [^18F]FDS",[3]; P<0.001,significantly higher
same,postmortem gamma counting of tissues,[3],uptake in both S. aureus and E. coli
same,strains excepted from rapid and significant accumulation,[7],P. aeruginosa and E. faecium
same,accumulation in bacterial strains,[7]; all strains tested except P. aeruginosa and E. faecium,rapid and significant accumulation
same,detection of infection by PET,[8],rapidly and specifically detected
same,"accumulation in E. coli cultures, tracer comparison",[9]; FIG. 1D,accumulated
same,incorporation of tracer over time,[9]; heat-killed bacteria,not heat-killed bacteria
same,incorporation of tracer over time,[9]; live E. coli cultures,readily incorporated
same,relation of PET signal to CFU burden during treatment,[4]; vancomycin treatment,correlating closely with CFU burden
same,accumulation at site of infection (PET),[10],specifically accumulated in the site of infection
OC[C@@H](O)[C@@H](O)[C@H](O)[C@H](O)CO [D-mannitol],concentration of D-mannitol that blocked [^18F]FMtl accumulation in bacteria,[11],≥ 10 µg/mL
"2-[^18F]fluoro-2-deoxy-glucose [[^18F]FDG, reference compound]",differences in SUV between sites of infection and inflammation,[5]; FIG. 2B,unable to demonstrate significant differences in SUV
same,ability to distinguish infection from inflammation (PET),[5]; infected vs inflamed triceps brachii,unable to distinguish infection from inflammation
